Test results reported in patent publication US7238724B2, “Pharmaceutical compositions as inhibitors of dipeptidyl peptidase-IV (DPP-IV)” (Abbott Laboratories, priority 2004, dated 2007).

What was measured:
[1] = system: Normal mice (C57/BL6 strain); test: acute oral glucose tolerance test (OGTT); format: in vivo; settings: OGTT 5 gm/kg
Procedure: Compounds of the present invention were evaluated for their ability to treat diabetes using an acute oral glucose tolerance test (OGTT) as follows: Normal mice (C57/BL6 strain), 6-7 weeks of age, on a normal chow diet, were fasted for 3 hrs. A baseline tail snip blood sample was taken to measure glucose levels (Precision PCx glucose meter, Abbott Laboratories, Abbott Park, Ill.) at the beginning of the experiment. Immediately after this baseline sample, compounds of the present invention (or placebo) were dosed orally. One hour later, a tail snip blood glucose measurement was taken, immediately followed by an oral glucose dose (OGTT, 5 gm/kg). The glucose excursion was followed for 2 hours with samples taken at 10, 20, 30, 60 and 120 minutes post OGTT. These timed glucose data were used to construct a glucose excursion curve, from which an area under the glucose curve (AUGC) was determined. The data reported in Table 2 is the baseline-adjusted area under the glucose curve (δAUGC) for drug and control groups.

[2] = target: DPP8 (Homo sapiens, UniProt Q6V1X1); test: DPP8 inhibitory constant (Table 1 selectivity comparison); format: biochemical
[3] = target: DPP9 (Homo sapiens, UniProt Q86TI2); test: DPP9 inhibitory constant (Table 1 selectivity comparison); format: biochemical
DPP9, sequence (Q86TI2 whole entry, species assumed): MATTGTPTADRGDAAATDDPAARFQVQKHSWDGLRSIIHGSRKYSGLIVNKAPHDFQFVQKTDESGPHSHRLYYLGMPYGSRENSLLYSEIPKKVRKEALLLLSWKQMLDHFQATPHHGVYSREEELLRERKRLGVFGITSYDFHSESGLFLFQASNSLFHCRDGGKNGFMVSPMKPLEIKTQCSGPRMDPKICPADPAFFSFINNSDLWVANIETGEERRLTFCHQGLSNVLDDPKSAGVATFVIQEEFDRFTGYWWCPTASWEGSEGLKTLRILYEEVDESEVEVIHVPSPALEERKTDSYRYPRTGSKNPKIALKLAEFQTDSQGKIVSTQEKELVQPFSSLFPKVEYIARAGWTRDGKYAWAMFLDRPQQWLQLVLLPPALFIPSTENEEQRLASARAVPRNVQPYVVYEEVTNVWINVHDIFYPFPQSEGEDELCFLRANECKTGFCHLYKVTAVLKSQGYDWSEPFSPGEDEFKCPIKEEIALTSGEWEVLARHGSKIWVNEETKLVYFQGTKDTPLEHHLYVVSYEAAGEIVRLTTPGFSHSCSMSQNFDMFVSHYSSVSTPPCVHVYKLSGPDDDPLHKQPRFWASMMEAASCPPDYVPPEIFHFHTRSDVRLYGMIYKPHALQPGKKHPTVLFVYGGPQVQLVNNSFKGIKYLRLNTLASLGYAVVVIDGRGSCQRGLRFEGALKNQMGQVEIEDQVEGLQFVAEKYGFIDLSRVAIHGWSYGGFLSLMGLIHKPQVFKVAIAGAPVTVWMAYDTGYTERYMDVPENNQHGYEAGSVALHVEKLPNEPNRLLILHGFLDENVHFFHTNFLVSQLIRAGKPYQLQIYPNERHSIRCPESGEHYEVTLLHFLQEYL

DPP8, sequence (Q6V1X1 whole entry, species assumed): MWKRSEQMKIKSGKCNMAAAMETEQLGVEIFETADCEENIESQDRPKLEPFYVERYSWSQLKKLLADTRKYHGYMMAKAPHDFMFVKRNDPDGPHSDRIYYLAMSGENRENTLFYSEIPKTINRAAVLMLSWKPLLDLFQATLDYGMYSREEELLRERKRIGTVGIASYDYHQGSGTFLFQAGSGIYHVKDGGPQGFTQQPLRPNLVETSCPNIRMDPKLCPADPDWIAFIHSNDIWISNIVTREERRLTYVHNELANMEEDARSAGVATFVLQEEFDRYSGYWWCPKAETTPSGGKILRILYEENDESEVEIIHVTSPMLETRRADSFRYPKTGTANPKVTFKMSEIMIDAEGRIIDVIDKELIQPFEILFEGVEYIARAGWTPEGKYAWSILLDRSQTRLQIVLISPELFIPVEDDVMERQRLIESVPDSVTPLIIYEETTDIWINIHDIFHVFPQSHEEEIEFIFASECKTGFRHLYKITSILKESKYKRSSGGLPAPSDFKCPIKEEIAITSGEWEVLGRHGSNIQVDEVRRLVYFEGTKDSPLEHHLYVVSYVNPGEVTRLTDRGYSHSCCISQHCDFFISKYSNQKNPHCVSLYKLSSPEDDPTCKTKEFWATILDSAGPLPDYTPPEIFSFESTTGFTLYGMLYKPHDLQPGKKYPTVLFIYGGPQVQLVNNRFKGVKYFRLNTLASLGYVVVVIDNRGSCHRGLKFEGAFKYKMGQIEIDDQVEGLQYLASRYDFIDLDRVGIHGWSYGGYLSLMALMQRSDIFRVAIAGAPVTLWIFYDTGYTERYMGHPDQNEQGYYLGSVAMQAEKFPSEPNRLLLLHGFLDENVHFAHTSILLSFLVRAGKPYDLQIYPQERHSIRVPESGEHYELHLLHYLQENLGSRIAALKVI

For `C#C[C@H]1CC[C@@H](C#N)N1C(=O)CN[C@H]1CC[C@H](Oc2ccc(C#N)cn2)CC1` (relative stereo) [Compound 3, (2S,5R)-5-ethynyl-1-{N-(4-trans(5-cyano-pyridin-2-yloxy)cyclohexyl)glycyl}pyrrolidine-2-carbonitrile], the “δ AUGC, change versus Control” value ([1]; 1.0 mg/kg dosed orally) was −39%, the “δ AUGC, change versus Control” value ([1]; 3.0 mg/kg dosed orally) was −54% and the Ki [2] was over 30 µM.
`CC(C)(C)NCC(=O)N1[C@H](C#N)CC[C@@H]1C#N` [Compound 9, (2R,5S)-1-[(tert-butylamino)acetyl]pyrrolidine-2,5-dicarbonitrile] showed a Ki [3] of over 100 µM and a Ki [2] of over 100 µM.
